Measured values published in patent US11760744B2, “Fused ring compounds” (Genentech, Inc., priority 2018, dated 2023).

Experiments:
[1] = target: T1, K-Ras G12C mutant protein (Homo sapiens, UniProt P01116, G12C); assay: K-Ras G12C HTRF assay; type: biochemical; settings: Table 1; unit or assay not given; several values in one cell
T1 construct: K-Ras G12C (residues 2-188) and SOS1 (residues 564-1049) had N-terminal 6-His; made in house; host or cells: E. coli
Method: In the above definition of R^2, the electrophilic moiety that is capable of forming a covalent bond with a cysteine residue is determined via K-Ras G12C-alkylation studies and Homogeneous Time Resolved Fluorescence (HTRF) assays. The G12C mutation of the K-Ras gene is a change in amino acid from glycine to cysteine at the 12th amino acid. The compounds according to the present disclosure were discovered using the HTRF assay and the K-Ras G12C-alkylation assay, as further detailed elsewhere herein below, and then NMR spectroscopy was later used to validate the specificity with which the molecule was attaching to G12C.

K-Ras G12C [2] = target: T2, K-Ras G12C (Homo sapiens, UniProt P01116, G12C); assay: Western blot assay for in cell alkylation of K-Ras G12C (HCC1171 cells); type: cell-based; set-up: endogenous in cells; host or cells: HCC1171; settings: 18 hours at 37° C., 7 point dose response
Method in brief: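 HCC1171 cells exposed to compounds for 18 h at 37° C, lysed, and analysed by SDS-PAGE/western blot with anti-K-Ras antibody and fluorescent secondary. Alkylated K-Ras separated by band shift; % alkylation = FI(alkylated)/(FI(alkylated)+FI(unalkylated))×100, IC50 from 7-point dose response.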
Target sequence in this assay (P01116 1-188 isoform P01116-2 G12C): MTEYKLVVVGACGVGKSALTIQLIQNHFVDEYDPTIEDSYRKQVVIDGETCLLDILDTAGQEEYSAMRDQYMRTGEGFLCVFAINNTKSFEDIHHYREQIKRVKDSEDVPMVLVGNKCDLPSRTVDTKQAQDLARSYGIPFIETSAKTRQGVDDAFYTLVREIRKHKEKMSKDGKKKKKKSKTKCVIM

K-Ras G12C [3] = target: T2, K-Ras G12C; assay: K-Ras G12C, SOS1, Raf RBD HTRF assay for inhibition of GTP exchange; type: biochemical; set-up: K-Ras G12C (residues 2-188) and SOS1 (residues 564-1049) had N-terminal 6-His; made in house; host or cells: E. coli; settings: 18 hours preincubation with K-Ras G12C at room temperature; SOS1-mediated GTP exchange
Method in brief: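 After 18 h at room temperature with compound, SOS1 (1.25 nM final) started exchange to GTP (150 μM final). C-Raf RBD, Tb-anti-FLAG and D2-anti-his (50, 1 and 12.5 nM) were then added. The 665/615 nm HTRF ratio was read after 2 h; buffer was HEPES/NaCl, 1 mM MgCl2, BSA, Tween-20 and DTT.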
Target sequence in this assay (P01116 2-188 isoform P01116-2 G12C): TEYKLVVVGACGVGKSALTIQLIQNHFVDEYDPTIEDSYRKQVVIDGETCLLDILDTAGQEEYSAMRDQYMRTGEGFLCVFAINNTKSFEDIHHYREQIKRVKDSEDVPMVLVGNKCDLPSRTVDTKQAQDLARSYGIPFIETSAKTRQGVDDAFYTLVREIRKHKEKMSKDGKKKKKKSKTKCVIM

T1 sequence (P01116 2-188 isoform P01116-2 G12C): as above

Row | SMILES | IC50 [1] [nM] | EC50 (K-Ras G12C [2]) [nM] | IC50 (K-Ras G12C [3]) [nM]
1 | C=CC(=O)N1CCN(c2nc(OCCCN3CCOCC3)nc3c2CCC(c2cc(O)cc4ccccc24)C3)C(C)C1 (centres unmarked) [Example 53, 1-(4-(7-(3-hydroxynaphthalen-1-yl)-2-(3-morpholinopropoxy)-5,6,7,8-tetrahydroquinazolin-4-yl)-3-methylpiperazin-1-yl)prop-2-en-1-one] | 22 |  | 
2 | COc1ccc(CN(Cc2ccc(OC)cc2)c2cc(C)c(I)c(C3Cc4nc(OCC5CCCN5C)nc(N5CCN(C(=O)OC(C)(C)C)CC5C)c4CC3C)c2F)cc1 (centres unmarked) [Example 14, tert-butyl 4-(7-(3-(bis(4-methoxybenzyl)amino)-2-fluoro-6-iodo-5-methylphenyl)-6-methyl-2-((1-methylpyrrolidin-2-yl)methoxy)-5,6,7,8-tetrahydroquinazolin-4-yl)-3-methylpiperazine-1-carboxylate] | > 50000 |  | 
3 | C=CC(=O)N1CCN(c2nc(OCC3CCCN3C)nc3c2CCCC3)CC1 (centres unmarked) [Example 45, 1-(4-(2-((1-methylpyrrolidin-2-yl)methoxy)-5,6,7,8-tetrahydroquinazolin-4-yl)piperazin-1-yl)prop-2-en-1-one] | > 50000 |  | 
4 | C=CC(=O)N1CCC(C#N)(c2nc(OCC3CCCN3C)nc3c2CCC(c2cc(O)cc4ccccc24)C3)CC1 (centres unmarked) [Example 7, 1-acryloyl-4-(7-(3-hydroxynaphthalen-1-yl)-2-((1-methylpyrrolidin-2-yl)methoxy)-5,6,7,8-tetrahydroquinazolin-4-yl)piperidine-4-carbonitrile] | 87 |  | 
5 | C=CC(=O)N1CCN(c2nc(OCC3CCCN3C)nc3c2CCC2(CCCCC2)C3)CC1 (centres unmarked) [Example 25, 1-(4-(2′-((1-methylpyrrolidin-2-yl)methoxy)-5′,8′-dihydro-6′H-spiro[cyclohexane-1,7′-quinazolin]-4′-yl)piperazin-1-yl)prop-2-en-1-one] | 5400 |  | 
6 | C=CC(=O)N1CCN(c2nc(OCC3CCC(=O)N3)nc3c2CCC(c2cc(O)cc4ccccc24)C3)C(C)C1 (centres unmarked) [Example 55, 5-(((4-(4-acryloyl-2-methylpiperazin-1-yl)-7-(3-hydroxynaphthalen-1-yl)-5,6,7,8-tetrahydroquinazolin-2-yl)oxy)methyl)pyrrolidin-2-one] | 1400 |  | 
7 | C=CC(=O)N1CCN(c2nc(OCc3cn(C)cn3)nc3c2CCC(c2cc(O)cc4ccccc24)C3)C(C)C1 (centres unmarked) [Example 54, 1-(4-(7-(3-hydroxynaphthalen-1-yl)-2-((1-methyl-1H-imidazol-4-yl)methoxy)-5,6,7,8-tetrahydroquinazolin-4-yl)-3-methylpiperazin-1-yl)prop-2-en-1-one] | 470 |  | 
8 | CN1CCCC1COc1nc2c(c(N3CCN(C(=O)/C=C/CNC45CC(C4)C5)C(CC#N)C3)n1)CCC(c1cccc3ccccc13)C2 (centres unmarked) [Example 48, (E)-2-(1-(4-(bicyclo[1.1.1]pentan-1-ylamino)but-2-enoyl)-4-(2-((1-methylpyrrolidin-2-yl)methoxy)-7-(naphthalen-1-yl)-5,6,7,8-tetrahydroquinazolin-4-yl)piperazin-2-yl)acetonitrile] | 11 |  | 
9 | C=CC(=O)N1CC(C)N(c2nc(OCC3CCCN3C)nc3c2CCC(c2cc(O)cc4ccccc24)C3)C(C)C1 (centres unmarked) [Example 56, 1-(4-(7-(3-hydroxynaphthalen-1-yl)-2-((1-methylpyrrolidin-2-yl)methoxy)-5,6,7,8-tetrahydroquinazolin-4-yl)-3,5-dimethylpiperazin-1-yl)prop-2-en-1-one] | 73 |  | 
10 | C=CC(=O)N1CCN(c2nc(OCCC3CCCN3C)nc3c2CCC(c2cc(O)cc4ccccc24)C3)CC1 (centres unmarked) [Example 52, 1-(4-(7-(3-hydroxynaphthalen-1-yl)-2-(2-(1-methylpyrrolidin-2-yl)ethoxy)-5,6,7,8-tetrahydroquinazolin-4-yl)piperazin-1-yl)prop-2-en-1-one] | 51 |  | 
11 | C=CC(=O)N1CCN(c2ncnc3c2CC(C)C(c2nc(N)cc(C)c2C(F)(F)F)C3)CC1 (single isomer, unassigned) [Example 1, 1-(4-(7-(6-amino-4-methyl-3-(trifluoromethyl)pyridin-2-yl)-6-methyl-5,6,7,8-tetrahydroquinazolin-4-yl)piperazin-1-yl)prop-2-en-1-one] | > 50000 |  | 
12 | C=CC(=O)N1CCN(c2nc(OCC3CCCN3C)nc3c2CC(C)C(c2c(C)ccc4[nH]ncc24)C3)CC1 (centres unmarked) [Example 18, 1-(4-(6-methyl-7-(5-methyl-1H-indazol-4-yl)-2-((1-methylpyrrolidin-2-yl)methoxy)-5,6,7,8-tetrahydroquinazolin-4-yl)piperazin-1-yl)prop-2-en-1-one] | 24 |  | 
13 | C=CC(=O)Oc1cc(C2CCc3c(nc(OCC4CCCN4C)nc3N3CCN(C(=O)C=C)CC3)C2)c2ccccc2c1 (centres unmarked) [Example 50, 4-(4-(4-acryloylpiperazin-1-yl)-2-((1-methylpyrrolidin-2-yl)methoxy)-5,6,7,8-tetrahydroquinazolin-7-yl)naphthalen-2-yl acrylate] | 160 |  | 
14 | C=CC(=O)N1CCN(c2nc(OC[C@@H]3CCCN3C)nc3c2CCC(c2cc(O)cc4ccccc24)C3)[C@@H](CO)C1 (single isomer, unassigned) [Example 29a] |  | 9300 | 530
15 | C=CC(=O)N1CCN(c2nc(OC[C@@H]3C[C@@H](F)CN3C)nc3c2C[C@@H](C)[C@H](c2nc(NC)cc(C)c2C(F)(F)F)C3)[C@@H](C)C1 (single isomer, unassigned) [Example 5b] |  | 180 | 45
16 | C=CC(=O)N1CCN(c2nc(OC[C@@H]3CCCN3C)nc3c2CCC(c2cc(O)cc4ccccc24)C3)CC1CC#N (stereo partly drawn) [Example 58a, 2-(1-acryloyl-4-(7-(3-hydroxynaphthalen-1-yl)-2-(((S)-1-methylpyrrolidin-2-yl)methoxy)-5,6,7,8-tetrahydroquinazolin-4-yl)piperazin-2-yl)acetonitrile] |  | 10 | 28
17 | C=C(F)C(=O)N1CCN(c2nc(OC[C@@H]3CCCN3C)nc3c2CC[C@@H](c2cc(O)cc4ccccc24)C3)C[C@H]1CC#N (single isomer, unassigned) [Example 61d] |  | 11 | 28
18 | C=CC(=O)N1CCN(c2nc(OC[C@@H]3CCCN3C)nc3c2CC[C@H](c2cc(O)cc4ccccc24)C3)C[C@H]1CC#N (single isomer, unassigned) [Example 58c] |  | 340 | 29
19 | C=CC(=O)N1CCN(c2nc(OC[C@@H]3CCCN3C)nc3c2C[C@H](C)[C@@H](c2nc(N)cc(C)c2C(F)(F)F)C3)[C@@H](C)C1 (single isomer, unassigned) [Example 21a] |  | 2300 | 1100
20 | COc1ccc(CN(Cc2ccc(OC)cc2)c2cc(C)c(I)c([C@@H]3Cc4nc(OC[C@@H]5CCCN5C)nc(N5CCN(C(=O)OC(C)(C)C)C[C@@H]5C)c4C[C@H]3C)c2F)cc1 (single isomer, unassigned) [Example 14a] |  | 1000 | > 50000
21 | C=CC(=O)N1CCN(c2ncnc3c2CCC(c2nc(N)cc(C)c2C(F)(F)F)C3)CC1 (centres unmarked) [Example 26, 1-[4-[7-[6-amino-4-methyl-3-(trifluoromethyl)-2-pyridyl]-5,6,7,8-tetrahydroquinazolin-4-yl]piperazin-1-yl]prop-2-en-1-one] |  | 2200 | 270
22 | C=CC(=O)N1CCN(c2nc(OC[C@@H]3CCCN3C)nc3c2C[C@@H](C)[C@H](c2c(C)c(C)cc(N)c2F)C3)[C@@H](C)C1 (single isomer, unassigned) [Example 11b] |  | 47 | < 10
23 | C=CC(=O)N1CCN(c2nc(OC[C@@H]3CCCN3C)nc3c2C[C@H](C)[C@@H](c2c(F)c(N)cc(C)c2C(F)(F)F)C3)[C@@H](C)C1 (single isomer, unassigned) [Example 12a] |  | 1100 | 610
24 | COc1ccc(CN(Cc2ccc(OC)cc2)c2cc(C)c(I)c([C@H]3Cc4nc(OC[C@@H]5CCCN5C)nc(N5CCN(C(=O)OC(C)(C)C)C[C@@H]5C)c4C[C@@H]3C)c2F)cc1 (single isomer, unassigned) [Example 14b] |  | 1000 | > 50000
25 | C=CC(=O)N1CCN(c2nc(OC[C@@H]3C[C@H](F)CN3C)nc3c2CC[C@H](c2cc(O)cc4ccccc24)C3)[C@@H](C)C1 (single isomer, unassigned) [Example 30a] |  | 40 | 11
26 | C=C(F)C(=O)N1CCN(c2nc(OC[C@@H]3CCCN3C)nc3c2CCC(c2cccc4ccccc24)C3)CC1CC#N (single isomer, unassigned) [Example 47c] |  | 450 | 130
27 | C=CC(=O)N1CCN(c2nc(OC[C@@H]3CCCN3C)nc3c2C[C@H](C)[C@@H](c2c(C(F)(F)F)ccc(N)c2F)C3)[C@@H](C)C1 (single isomer, unassigned) [Example 23a] |  | 1000 | 720
